A short description of this data set: gradient 5% acetonitrile 3 min, to 50% in 2 min, to 85% in 15 min, held 3 min, 100 µL/min. Conditions: column: Zorbax Extend-C18 2.1 x 50 mm; eluents: water / acetonitrile, 0.1% formic acid. In outline: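 The mobile phases were water and acetonitrile, each with 0.1% formic acid, pumped at 100 μL/min through a Zorbax Extend-C18 column (2.1 × 50 mm, 1.8 μm). Pure standards were injected as mixtures of ~100 molecules and detected by a quadrupole time-of-flight mass spectrometer in positive and negative ionization mode. Retention time came from computationally picked adduct peaks, each inspected by hand.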
On to `CCN1C[C@]2(COC)CC[C@H](OC)[C@]34C5C[C@@H]6[C@@H](OC)C[C@@]7(OCOC7(C13)[C@@H](O)C24)C5[C@H]6OC` (stereo partly drawn), for which the RP-LC retention time is 614 s. To `CO[C@H]1C(=O)N(C(C)C)[C@H]1C1CCN(C(=O)CN2C(=O)CCC2=O)CC1` belongs 607 s. Take `O=C(Cn1c(=O)c2cc(-c3ccco3)nn2c2ncccc21)Nc1ccc(F)cc1`: the RP-LC retention time is 814 s. As for `O=C([C@@H]1C[C@H](F)CN1C(=O)c1cccs1)N1CCCCC1`, the RP-LC retention time came to 662 s.

For `O[C@H](CNC[C@@H](O)[C@H]1CCc2cc(F)ccc2O1)[C@@H]1CCc2cc(F)ccc2O1`, the RP-LC retention time was determined as 791 s. `O=c1[nH]cc(Cl)cc1Cl` registered an RP-LC retention time of 662 s. `CCc1ccc(-c2noc(Cn3c(=O)n(CC)c(=O)c4ccccc43)n2)cc1` gave an RP-LC retention time of 1160 s.

Compound `CCOc1ccc(C(=O)n2nc(C)c(S(=O)(=O)N3CCCC3)c2C)cc1` yielded an RP-LC retention time of 1130 s. Take `O=C(Cc1ccccc1)N1CCCC1c1nc(-c2ccccc2)no1` (stereo not drawn): the RP-LC retention time worked out at 949 s. `CCc1nnc(-c2cccs2)o1`: the RP-LC retention time is 731 s. Compound `Cn1cc(C2=C(c3cn(CCCSC(=N)N)c4ccccc34)C(=O)NC2=O)c2ccccc21` registered an RP-LC retention time of 767 s. On to `O=C1CC(c2ccc(O)cc2)c2c(c(C(=O)O)cn2-c2cccc(C(F)(F)F)c2)N1` (stereo not drawn), for which the RP-LC retention time worked out at 746 s. As to `CCN1C(=O)c2cccnc2Sc2cc(CNC(=O)c3ccncc3)ccc21`, the RP-LC retention time came out at 623 s. Turning to `CCCCN1CC(=O)N(c2cccc(Cl)c2)[C@@H]2CS(=O)(=O)C[C@@H]21`, the RP-LC retention time was 790 s. Compound `CCn1c(=O)c(=O)n(CC(=O)NCCc2ccco2)c2cccnc21` yielded an RP-LC retention time of 638 s. To `COc1ccccc1N1CCN(C(=O)C2CC(=O)N(c3n[nH]c4cccc(F)c34)C2)CC1` (stereo not drawn) belongs 686 s. The compound `CC(C)n1c(N2CCCN(C(=O)COc3ccccc3)CC2)cc(=O)n(C(C)C)c1=O` came in with an RP-LC retention time of 843 s. As to `COCCN1C(=O)c2ccccc2C(C(=O)NCCCN2CC(C)CC(C)C2)C1c1cccs1` (stereo not drawn), the RP-LC retention time is 670 s.

In turn, `Cc1c(Cl)cccc1S(=O)(=O)Nc1ccccc1N1CCNC(=O)C1` gave an RP-LC retention time of 738 s. Regarding `CC(C)n1cc(S(=O)(=O)Nc2ccc(F)cc2Cl)c2cccnc21`, the RP-LC retention time turned out to be 989 s. To `CCOC(=O)c1c(C)[nH]c(C(=O)N2CCCC(C(=O)NCc3cccc(F)c3)C2)c1C` (stereo not drawn) belongs 808 s; to `Cc1ccnc(N2CCC(C(=O)NC3CCCC3)CC2)n1`, 628 s; to `CCOc1ccc(-c2noc(Cc3nnc(-c4cc(F)cc(F)c4)o3)n2)cc1`, 1100 s. Compound `O=C(c1cc(F)cc(F)c1)N1CCc2nc(-c3ccccc3)ncc2C1` displayed an RP-LC retention time of 946 s. The compound `CCn1c(C(=O)N2CCOCC2)cc2c(-c3cccs3)nn(-c3ccccc3)c21` gave an RP-LC retention time of 944 s.

In turn, `CSc1cccc(NC(=O)CSc2nnc3c4cc(-c5ccc(C)c(C)c5)nn4ccn23)c1` showed an RP-LC retention time of 1030 s. To `Cc1ccc(CC(=O)Nc2ccc(-c3nc(Cn4cccn4)c(C)o3)cc2)cc1` belongs 880 s; to `Cc1nnc(C2CCCCCN2C(=O)c2occc2C)o1` (stereo not drawn), 718 s; to `Cc1c(Cl)cccc1NC(=O)C1CCN(S(=O)(=O)c2ccc3c(c2)NC(=O)C(C)O3)CC1` (stereo not drawn), 858 s. To `Cc1ccn2c(NC(=O)COc3ccc(Cl)cc3Cl)c(-c3ccccc3)nc2c1` belongs 799 s; to `CCC(CC)C(=O)Nc1ccc(-c2nc(-c3ccc(Cl)cc3)no2)cc1`, 639 s; to `CN1C2CCC1CC(OC(c1ccc(F)cc1)c1ccc(F)cc1)C2` (stereo not drawn), 838 s.

With `CC(C)CC(C)NC(=O)c1ccc(CN2C(=O)C3CCCN3C(=O)c3ccccc32)cc1` (stereo not drawn), the RP-LC retention time turned out to be 836 s. As to `Cn1c(=O)c(N2CCC(NC(=O)NCc3ccc(F)cc3)CC2)nc2ccccc21`, the RP-LC retention time was 814 s. To `CCOC(=O)C(C)Oc1ccc2c(=O)c(Oc3ccccc3OCC)coc2c1` (stereo not drawn) belongs 971 s; to `O=C1CCCN1CCCn1c(SCc2c(F)cccc2F)nc2ccccc2c1=O`, 895 s.

Compound `CC(=O)c1cccc(NC(=O)Cn2c(=O)n(-c3ccc(F)cc3)c(=O)c3c2cc(C)n3C)c1` returned an RP-LC retention time of 910 s. In turn, `Cc1nc2ncnn2c(N2CCOCC2)c1C` gave an RP-LC retention time of 625 s. `COc1ccc(NC(=O)N2CCN(C3=CC4=NC(C)CN4C=N3)CC2)cc1Cl` (stereo not drawn) yielded an RP-LC retention time of 633 s. In turn, `Brc1ccc(NCc2nnc(-c3ccccc3)o2)cc1` yielded an RP-LC retention time of 899 s. Compound `CSc1ccc(-c2nc3cccc(C)n3c2Nc2ccc(Cl)cc2)cc1` came in with an RP-LC retention time of 788 s. To `Cc1ccc(-n2nc(N3CCN(C(=O)Nc4ccc(Cl)cc4)CC3)ccc2=O)cc1` belongs 894 s; to `Cc1ccnc(NC(=O)C2CCN(S(=O)(=O)c3cc(-c4noc(C5CC5)n4)ccc3C)CC2)c1`, 811 s. To `COc1ccc(Cl)cc1S(=O)(=O)N1CCCC(C)(C(=O)NCc2ccccc2)C1` (stereo not drawn) belongs 981 s; to `CCCc1noc(-c2cccnc2N2CCCN(Cc3ccccc3Cl)CC2)n1`, 737 s. As to `Cc1csc(-c2csc(S(=O)(=O)N3CCc4ccccc4C3)c2)n1`, the RP-LC retention time came out at 1110 s.

With `Cn1cc(C2=CCN(S(=O)(=O)c3cccc4nsnc34)CC2)c2cccnc21`, the RP-LC retention time was 893 s.

The compound `O=C(/C=C/c1ccccc1)NC(Cc1ccccc1)C(=O)N1CCN(c2ccccn2)CC1` (stereo not drawn) showed an RP-LC retention time of 692 s.

In turn, `O=C(NCc1ccc(Br)cc1)C1CCCN(c2nccnc2Oc2ccccc2)C1` (stereo not drawn) returned an RP-LC retention time of 1050 s. `O=C1CCCCC(Cc2ccccc2)(C(=O)Nc2ccc(F)cc2)N1` (stereo not drawn) registered an RP-LC retention time of 818 s. With `Cc1sc(NC(=O)c2ccccc2Br)nc1-c1ccccc1`, the RP-LC retention time was determined as 1090 s. In the case of `CCC(C)NC(=O)Cn1nc(-c2ccccc2)c2cc(Cl)ccc21` (stereo not drawn), the RP-LC retention time was 1060 s. In turn, `COc1ccc(Cl)c2c(=O)c3c([nH]c12)CCN(CC(=O)Nc1ccc(F)c(F)c1)C3` showed an RP-LC retention time of 634 s. With `COc1cc(-c2nc3ccc(C)cn3c2Nc2ccc(Cl)cc2)ccc1O`, the RP-LC retention time was found to be 698 s. Turning to `COCCOc1ccc2c(n1)CCN(C(=O)Nc1cc(C)ccc1C)C2`, the RP-LC retention time was found to be 873 s.

The compound `COc1ccc(-c2nnc3n2CCN(Cc2scnc2C)C3)cc1` gave an RP-LC retention time of 657 s. Compound `O=C(Cn1nc2n(c1=O)CCCCC2)Nc1cccc(Br)c1` yielded an RP-LC retention time of 757 s. Take `CC(C)c1ccc(S(=O)(=O)N2C[C@@H](F)C[C@H]2C(=O)N2CCCCC2)cc1`: the RP-LC retention time stood at 930 s.

Values taken from the METLIN SMRT retention time set (Domingo-Almenara et al. 2019).
